Reference: article PMC6025150, “Synthesis, enzyme inhibitory kinetics mechanism and computational study of N-(4-methoxyphenethyl)-N-(substituted)-4-methylbenzenesulfonamides as novel therapeutic agents for Alzheimer’s disease” (PeerJ, 2018)
Values joined by “and” are separate entries in the source; they are usually repeats but may differ in a detail not shown here. Equal entries are not always repeated. “Also recorded” adds a separate entry of the source. Where two headings read alike, the source gives them in different places.

Experiments:
[1] = molecular target: T1, acetylcholinesterase (from human erythrocytes) (Homo sapiens, UniProt P22303); assay: biochemical; set-up: LogIC50 (best-fit value): unit not given here
T1 construct: acetylcholinesterase (from human erythrocytes, purchased from Sigma-Aldrich, Seoul, Korea); purchased Sigma-Aldrich, Seoul, Korea; host or cells: human erythrocytes (natural source)
T1 sequence (P22303 32-617 isoform P22303-2 limits assumed): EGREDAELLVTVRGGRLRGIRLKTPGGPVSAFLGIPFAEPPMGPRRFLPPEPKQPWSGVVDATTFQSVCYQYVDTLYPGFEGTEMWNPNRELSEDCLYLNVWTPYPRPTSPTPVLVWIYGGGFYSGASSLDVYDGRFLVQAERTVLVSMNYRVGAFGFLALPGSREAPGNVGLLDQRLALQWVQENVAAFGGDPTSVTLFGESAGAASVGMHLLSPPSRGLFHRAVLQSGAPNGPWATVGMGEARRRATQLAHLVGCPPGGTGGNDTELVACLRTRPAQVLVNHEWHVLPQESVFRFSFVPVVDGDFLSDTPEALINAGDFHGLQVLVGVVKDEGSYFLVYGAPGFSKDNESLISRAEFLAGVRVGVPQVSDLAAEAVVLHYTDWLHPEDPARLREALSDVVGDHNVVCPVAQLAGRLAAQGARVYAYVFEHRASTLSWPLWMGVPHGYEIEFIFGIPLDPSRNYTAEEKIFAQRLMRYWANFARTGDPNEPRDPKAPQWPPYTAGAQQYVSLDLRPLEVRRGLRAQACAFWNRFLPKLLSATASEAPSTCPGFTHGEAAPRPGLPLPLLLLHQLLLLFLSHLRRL
Procedure: The inhibitory activities of synthesized compounds were determined spectrophotometrically using acetylthiocholine iodide as substrate by following the method of ([Ellman et al., 1961]). Briefly, The assay solution consisted of 180 µL of 50 mM Tris-HCl buffer, pH 7.7, containing (0.1 M sodium chloride and 0.02 M magnesium chloride) and 20 µL of enzyme (AChE, EC 3.1.1.7), acetylcholinesterase (from human erythrocytes, purchased from Sigma-Aldrich, Seoul, Korea) solution (50 U per well); increasing concentrations of test compounds (10 µL) were added to the assay solution and pre incubated for 30 min at 4 °C. After that 5,5′ Dithiobis (2 nitrobenzoic acid) (0.3 mM, 20 µL) and acetylthiocholine iodide (1.8 mM, 20 µL) were added to the reaction mixture and incubated at 37 °C for 10 min, followed by the measurement of absorbance at 412 nm. For non-enzymatic reaction, the assays were carried out with a blank containing all components except acetylcholinesterase. The assay measurements were measured at 412 nm using a micro plate reader (OPTI Max Tunable; Molecular Devices, Sunnyvale, CA, USA) having a wave-length range from 340–850 nm; for 96 well plates. The reaction rates were compared and percent inhibition was calculated due to the presence of tested inhibitors. […] Each concentration was analyzed in three independent experiments run in triplicate. The IC50 values were calculated by nonlinear regression using GraphPad Prism 5.0.
The % of Inhibition of Acetylcholinesterase was calculated as following: Inhibition%=B−S∕B×100. Here, the B and S are the absorbance’s for the blank and samples.

[2] = molecular target: T1, acetylcholinesterase (from human erythrocytes); assay: Determination of AChE inhibition kinetics (Lineweaver-Burk and secondary plots); format: biochemical
Procedure: The reaction mixture consisted of 180 µL of 50 mM Tris-HCl buffer (pH 7.7); 10 µL of 5c at the different concentrations (0.00, 0.075 and 0.15 µM) and 20 µL enzyme AChE (50 U per well). We added 20 µL of DTNB 0.3 mM and 20 µL of ATCI substrate at the different concentrations (4, 2, 1, 0.5, 0.25 and 0.125 mM) and mixed, pre-incubated time was same as acetylcholinesterase assay. We measured the absorbance at 412 nm up to 5 min. Lineweaver-Burk plot of the inverse of velocities vs. the inverse of substrate concentration was used for assessment of the type of inhibition AChE kinetically. […] The results (change in absorbance per sec) were processed by using SoftMaxPro software.

COc1ccc(CCN(C(C)C)S(=O)(=O)c2ccc(C)cc2)cc1 [Compound 5c, N-(4-Methoxyphenethyl)-4-methyl-N-(2-propyl)benzensulfonamide]
IC50 ([1]; each of three independent experiments, Raw Data of IC50 sheet, read-out: IC50, single experiment (converted)): 0.0424 µM and 0.108 µM
IC50 ([1]; from human erythrocytes, mean ± SEM, read-out: Acetylcholinesterase IC50 ± SEM): 0.0751 ± 0.0189 µM
LogIC50 (best-fit value) ([1]; log(inhibitor) vs. response fit, single run, IC50 Raw Data sheet): -1.584
IC50 ([1]; log(inhibitor) vs. response fit, single run, unit inferred, IC50 Raw Data sheet, read-out: IC50 (best-fit value) (converted)): 0.075 µM
IC50 ([1]; mean converted to uM, Raw Data of IC50 sheet, read-out: IC50): 0.0751 µM
IC50 ([1]; mean of three experiments, Raw Data of IC50 sheet, read-out: IC50 (Mean) (converted)): 0.0751 µM
type of inhibition ([2]; Lineweaver-Burk plots): competitively; also recorded: competitive
Slope of Lineweaver-Burk line ([2]; compound 0.075 µM): 1360.1
Vmax (1/V) ([2]; compound 0.075 µM, substrate axis value 0.25): 994.096
Vmax (1/V) ([2]; compound 0.075 µM, substrate axis value 0.5): 1353.4
Vmax (1/V) ([2]; compound 0.075 µM, substrate axis value 1): 2004.13
Vmax (1/V) ([2]; compound 0.075 µM, substrate axis value 2): 3323.6
Vmax (1/V) ([2]; compound 0.075 µM, substrate axis value 4): 5882.71
Vmax (1/V) ([2]; compound 0.075 µM, substrate axis value 8): 11587.8
Slope of Lineweaver-Burk line ([2]; compound 0.15 µM): 1563.63
Vmax (1/V) ([2]; compound 0.15 µM, substrate axis value 0.25): 1136.29
Vmax (1/V) ([2]; compound 0.15 µM, substrate axis value 0.5): 1514.8
Vmax (1/V) ([2]; compound 0.15 µM, substrate axis value 1): 2227.02
Vmax (1/V) ([2]; compound 0.15 µM, substrate axis value 2): 3687.56
Vmax (1/V) ([2]; compound 0.15 µM, substrate axis value 4): 6343.71
Vmax (1/V) ([2]; compound 0.15 µM, substrate axis value 8): 13371.1
Ki ([2]; from Dixon / secondary plot of slope vs inhibitor concentration, read-out: inhibition constant Ki (EI dissociation constant)): 2500 nM
